In brackets after ≈: the same amount, converted by molar mass. Activity calls are given as the source filed them. The rule behind the calls is not given here.
What was measured:
Acinetobacter baumannii [1] = assay: Antibacterial activity against multidrug-resistant Acinetobacter baumannii 06-74 isolate by CLSI microdilution test; type: functional
Acinetobacter baumannii [2] = assay: Antibacterial activity against multidrug-resistant Acinetobacter baumannii 06-74 isolate assessed as regrowth bacterial load at 50 ug/ml administered as continuous infusion in vitro pharmacodynamic model after 3 to 4 hrs by time kill experiment; type: functional
Acinetobacter baumannii [3] = assay: Antibacterial activity against multidrug-resistant Acinetobacter baumannii 06-74 isolate assessed as reduction in bacterial load at 50 ug/ml administered as continuous infusion in vitro pharmacodynamic model after 3 to 4 hrs by time kill experiment; type: functional
Acinetobacter baumannii [4] = assay: Antibacterial activity against multidrug-resistant Acinetobacter baumannii 06-74 isolate by time kill experiment; type: functional, organism-based
Acinetobacter baumannii [5] = assay: (§1) Antibacterial activity against multidrug-resistant Acinetobacter baumannii 06-74 isolate assessed as prevention of bacterial regrowth at 12 ug/ml first dose and 24 ug/ml of second dose administered 12 hrs after first dose as bolus dose in in vitro pharmacodynamic model vessel measured 2 to 3 hrs after last dose by time kill experiment; type: functional, organism-based
Acinetobacter baumannii [6] = assay: as §1, with “at 6” for “at 12”; type: functional, organism-based
Acinetobacter baumannii [7] = assay: Antibacterial activity against 24 ug/mL bolus dose Colistin methanesulfonate exposed multidrug-resistant Acinetobacter baumannii 06-74 isolate by CLSI microdilution test; type: functional, organism-based
Acinetobacter baumannii [8] = assay: Antibacterial activity against 12 ug/mL Colistin methanesulfonate exposed multidrug-resistant Acinetobacter baumannii 06-74 isolate by CLSI microdilution test; type: functional, organism-based
Acinetobacter baumannii [9] = assay: as §1, with “reduction in” for “prevention of”, “load” for “regrowth”; type: functional, organism-based
Acinetobacter baumannii [10] = assay: Antibacterial activity against multidrug-resistant Acinetobacter baumannii 06-74 isolate assessed as regrowth bacterial load at 12 ug/ml administered as bolus dose after 24 hrs by time kill experiment; type: functional, organism-based
Acinetobacter baumannii [11] = assay: as §1, with “as reduction in” for “as prevention of”, “bacterial load” for “bacterial regrowth”, “at 6” for “at 12”; type: functional, organism-based
Acinetobacter baumannii [12] = assay: Antibacterial activity against multidrug-resistant Acinetobacter baumannii 06-74 isolate assessed as reduction in bacterial load at 24 ug/ml administered as bolus dose after 2 to 3 hrs by time kill experiment; type: functional, organism-based
Acinetobacter baumannii [13] = assay: Antibacterial activity against multidrug-resistant Acinetobacter baumannii 06-74 isolate assessed as regrowth bacterial load at 24 ug/ml administered as bolus dose after 24 hrs by time kill experiment; type: functional, organism-based
Acinetobacter baumannii [14] = assay: Antibacterial activity against 3 ug/mL Colistin methanesulfonate exposed multidrug-resistant Acinetobacter baumannii 06-74 isolate by CLSI microdilution test; type: functional, organism-based
Acinetobacter baumannii [15] = assay: as §1, with “at 24” for “at 12”; type: functional, organism-based
Acinetobacter baumannii [16] = assay: as §1, with “as reduction in” for “as prevention of”, “bacterial load” for “bacterial regrowth”, “at 3” for “at 12”; type: functional, organism-based
Acinetobacter baumannii [17] = assay: as §1, with “as reduction in” for “as prevention of”, “bacterial load” for “bacterial regrowth”, “at 24” for “at 12”; type: functional, organism-based
Acinetobacter baumannii [18] = assay: Antibacterial activity against multidrug-resistant Acinetobacter baumannii 06-74 isolate assessed as regrowth bacterial load at 6 ug/ml administered as bolus dose after 24 hrs by time kill experiment; type: functional, organism-based
Acinetobacter baumannii [19] = assay: Antibacterial activity against multidrug-resistant Acinetobacter baumannii 06-74 isolate assessed as reduction in bacterial load at 6 ug/ml administered as bolus dose after 2 to 3 hrs by time kill experiment; type: functional, organism-based
Acinetobacter baumannii [20] = assay: Antibacterial activity against 6 ug/mL Colistin methanesulfonate exposed multidrug-resistant Acinetobacter baumannii 06-74 isolate by CLSI microdilution test; type: functional, organism-based
Acinetobacter baumannii [21] = assay: Antibacterial activity against multidrug-resistant Acinetobacter baumannii 06-74 isolate assessed as reduction in bacterial load at 3 ug/ml administered as bolus dose after 2 to 3 hrs by time kill experiment; type: functional, organism-based
Acinetobacter baumannii [22] = assay: Antibacterial activity against multidrug-resistant Acinetobacter baumannii 06-74 isolate assessed as regrowth bacterial load at 3 ug/ml administered as bolus dose after 24 hrs by time kill experiment; type: functional, organism-based
Acinetobacter baumannii [23] = assay: as §1, with “at 3” for “at 12”; type: functional, organism-based
Acinetobacter baumannii [24] = assay: Antibacterial activity against 24 ug/mL Colistin methanesulfonate exposed multidrug-resistant Acinetobacter baumannii 06-74 isolate by CLSI microdilution test; type: functional, organism-based
Acinetobacter baumannii [25] = assay: Antibacterial activity against multidrug-resistant Acinetobacter baumannii 06-74 isolate assessed as reduction in bacterial load at 12 ug/ml administered as bolus dose after 2 to 3 hrs by time kill experiment; type: functional, organism-based

In the case of `NCC[C@H](O)C(=O)N[C@@H]1C[C@H](N)[C@@H](O[C@H]2O[C@H](CN)[C@@H](O)[C@H](O)[C@H]2O)[C@H](O)[C@H]1O[C@H]1O[C@H](CO)[C@@H](O)[C@H](N)[C@H]1O` [AMIKACIN], the MIC (Acinetobacter baumannii [1]) was at most 2 µg/mL.

`CC1(C)S[C@@H]2[C@H](NC(=O)[C@H](N)c3ccccc3)C(=O)N2[C@H]1C(=O)O` [AMPICILLIN] was tested, and the MIC (Acinetobacter baumannii [1]) was at least 32 µg/mL.

With `CC(C)(O/N=C(\C(=O)N[C@@H]1C(=O)N2C(C(=O)[O-])=C(C[n+]3ccccc3)CS[C@H]12)c1csc(N)n1)C(=O)O` [CEFTAZIDIME] the log10CFU/ml (Acinetobacter baumannii [2]) was 6.5, the MIC (Acinetobacter baumannii [1]) was at least 64 µg/mL and the log10CFU/ml (Acinetobacter baumannii [3]) was 3.

`C[C@@H](O)[C@H]1C(=O)N2C(C(=O)O)=C(SCCNC=N)C[C@H]12` [IMIPENEM ANHYDROUS] was tested, and the MIC (Acinetobacter baumannii [1]) was at most 1 µg/mL.

With `C[C@H]1COc2c(N3CCN(C)CC3)c(F)cc3c(=O)c(C(=O)O)cn1c23.C[C@H]1COc2c(N3CCN(C)CC3)c(F)cc3c(=O)c(C(=O)O)cn1c23.O` [LEVOFLOXACIN] the MIC (Acinetobacter baumannii [1]) was at least 8 µg/mL.

In the case of `C[C@@H](O)[C@H]1C(=O)N2C(C(=O)O)=C(S[C@@H]3CN[C@H](C(=O)N(C)C)C3)[C@H](C)[C@H]12` [MEROPENEM], the MIC (Acinetobacter baumannii [1]) was 1 µg/mL (≈ 2.61 µM).

For `O=C1CN(/N=C/c2ccc([N+](=O)[O-])o2)C(=O)N1` [NITROFURANTOIN], the MIC (Acinetobacter baumannii [1]) was at least 512 µg/mL.

COLISTIMETHATE SODIUM showed an MIC (Acinetobacter baumannii [1]) of 2 µg/mL and an MIC (Acinetobacter baumannii [4]) of over 2.05 mg/mL.

COLISTIN was tested, and the Activity (Acinetobacter baumannii [5]) was “inactive”, the Activity (Acinetobacter baumannii [6]) was “inactive” and the Activity (Acinetobacter baumannii [2]) was “inactive”. The MIC (Acinetobacter baumannii [7]) was over 128 µg/mL, the MIC (Acinetobacter baumannii [8]) was 128 µg/mL and the Activity (Acinetobacter baumannii [9]) was “inactive”. For the same molecule, the log10CFU/ml (Acinetobacter baumannii [10]) was 7, the Activity (Acinetobacter baumannii [11]) was “inactive” and the log10CFU/ml (Acinetobacter baumannii [12]) was 3. For the same molecule, the log10CFU/ml (Acinetobacter baumannii [13]) was 7, the MIC (Acinetobacter baumannii [14]) was 64 µg/mL and the Activity (Acinetobacter baumannii [3]) was “inactive”. For the same molecule, the Activity (Acinetobacter baumannii [15]) was “inactive”, the Activity (Acinetobacter baumannii [16]) was “inactive” and the Activity (Acinetobacter baumannii [17]) was “inactive”. It also gave a log10CFU/ml (Acinetobacter baumannii [18]) of 7, a log10CFU/ml (Acinetobacter baumannii [19]) of 3 and an MIC (Acinetobacter baumannii [20]) of over 64 µg/mL. The log10CFU/ml (Acinetobacter baumannii [21]) was 3, the log10CFU/ml (Acinetobacter baumannii [22]) was 7 and the Activity (Acinetobacter baumannii [23]) was “inactive”. It also gave an MIC (Acinetobacter baumannii [24]) of over 32 µg/mL and a log10CFU/ml (Acinetobacter baumannii [25]) of 3.

GENTAMICIN showed an MIC (Acinetobacter baumannii [1]) of over 16 µg/mL.

Source: ChEMBL document CHEMBL1143418, “Colistin methanesulfonate against multidrug-resistant Acinetobacter baumannii in an in vitro pharmacodynamic model” (2007)
